How the values were obtained:
[1] = system: retinal neurons (RGCs) and glia (Müller cells); experiment: Hypotonic stimuli: cell swelling (change in cell area) and [Ca++]i; format: cell-based; conditions: hypotonic stimuli, 300 mOsm to 190 mOsm
Description: FIG. 18A illustrates the effect of hypotonic stimuli on cell swelling as measured by change in cell area. Hypotonic stimuli were generated by replacing extracellular sodium levels to lower osmolarity from 300 mOsm to 190 mOsm.

[2] = system: MB model of glaucoma; experiment: IOP time course after single eye drop in MB model of glaucoma; format: in vivo, mouse; conditions: eye drop
Protocol: Specifically, microbeads (MBs) were injected into the anterior chamber of a mouse eye as described in Example 2 with PBS-injected eyes used as controls. Compound 1 (10 mg/kg body weight) (or PBS vehicle) was injected intraperitoneally (IP). […] IOP was measured in mice between 10:00 AM and 1:00 PM with the TonoLab rebound tonometer (Colonial Medical Supply, Franconia, NH/Tyolat, Helsinki, Finland). Mice were sedated with IP injection of Avertin with final amount calculated by weight (e.g., 0.5 ml for 21-24 g animals). Animals were placed on a jack stand platform and the tonolab was clamped on a ring stand and centered onto the mid-cornea. During measurements animal were neither restrained nor touched. Each eye was measured twenty consecutive times, the highest and lowest values were discarded and the values were averaged.
FIG. 9 illustrates the short-term effects of a single dose of Compound 1 (eye drop) in the MB model of glaucoma. IOP was measured as described in Example 3 at the indicated time points after receiving a drop of Compound 1. Compound 1 reduced IOP beginning at 1 hour after dosing and continued through 6 hours after dosing.
FIG. 10 illustrates a time course of Compounds 1, 2, 5 and Compound 2-HCl as well as a positive control compound, timolol, with regard to inhibition of IOP. The experiment was conducted as described in Example 9. Each of the TRPV4 antagonists reduced IOP with a similar time course. Specifically, Compounds 1, 2, 5 and Compound 2-HCl reduced IOP for at least 6 hours after dosing.
FIG. 11 illustrates a time course of Compound 2-HCl activity. The experiment was conducted as described in Example 9. […] 2
FIG. 12 illustrates a comparison of the time course of Compound 2-HCl and Compound 5. The experiment was conducted as described in Example 9.

[3] = biological target: T1, TRPV4 (Homo sapiens, UniProt Q9HBA0); experiment: Fura-2 calcium imaging of human trabecular meshwork (TM) cells; format: cell-based; conditions: bath application 100 nM
T1 construct: endogenous in cells; host or cells: primary human trabecular meshwork cells from trabeculectomy tissue
T1 sequence (Q9HBA0 whole entry): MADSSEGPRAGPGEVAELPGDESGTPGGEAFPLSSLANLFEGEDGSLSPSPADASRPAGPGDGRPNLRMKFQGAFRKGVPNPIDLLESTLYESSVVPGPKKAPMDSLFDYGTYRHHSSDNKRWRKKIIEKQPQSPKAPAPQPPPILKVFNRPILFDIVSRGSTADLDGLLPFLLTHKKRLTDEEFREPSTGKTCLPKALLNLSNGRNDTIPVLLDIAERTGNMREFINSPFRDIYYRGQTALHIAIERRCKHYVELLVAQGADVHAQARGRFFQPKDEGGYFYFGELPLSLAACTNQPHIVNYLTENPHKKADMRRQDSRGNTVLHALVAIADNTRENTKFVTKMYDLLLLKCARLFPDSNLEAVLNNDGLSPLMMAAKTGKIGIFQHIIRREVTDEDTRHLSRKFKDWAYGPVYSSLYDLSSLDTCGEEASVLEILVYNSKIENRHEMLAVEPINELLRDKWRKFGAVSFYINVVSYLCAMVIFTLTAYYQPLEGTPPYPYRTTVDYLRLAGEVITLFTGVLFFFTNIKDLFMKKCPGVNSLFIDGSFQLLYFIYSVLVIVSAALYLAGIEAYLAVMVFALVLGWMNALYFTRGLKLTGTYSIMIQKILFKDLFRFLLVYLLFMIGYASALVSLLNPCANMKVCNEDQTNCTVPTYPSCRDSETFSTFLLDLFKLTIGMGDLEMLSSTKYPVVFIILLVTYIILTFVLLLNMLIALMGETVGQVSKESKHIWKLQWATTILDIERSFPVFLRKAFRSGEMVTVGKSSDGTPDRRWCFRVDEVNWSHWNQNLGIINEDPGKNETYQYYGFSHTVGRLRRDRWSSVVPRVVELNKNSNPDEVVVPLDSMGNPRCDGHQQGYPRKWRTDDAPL
Protocol: Pieces of tissue were isolated from a trabeculectomy. Trabecular meshwork cells (TM) were kept in cold L15 medium and then loaded with Fura-2 (10 μm) for 1 hour. Fibroblast-shaped cells were imaged from a TM chunk (˜500 μm×500 μm) with a 40× water immersion objective. The sampling rate was at 6 second intervals. Krebs Ringer Bicarbonate Recording buffer (7.4, 284 mOsm) was prepared as reported by Anthony et al., 1998, IOVS; Prostaglandin F2α receptors in the human trabecular meshwork.
Calcium imaging was performed on TM cells isolated from human patients. In brief, dissociated human TM cells embedded within the tissue were dissociated and plated on concanavalin A-coated (0.2 mg/ml; Sigma) coverslips, loaded with fura-2 AM ([…]; Invitrogen Life Technologies) for 15 min-1 hour and washed for 10 min in dye-free L-15 medium. […] Fluorescence emission was high-pass filtered at 510 nm and captured with cooled digital CCD cameras (HQ2, Photometrics). […] Fluorescence imaging was performed on regions of interest (ROIs) encompassing the TM cell somata, typically at 3×3 binning. Background fluorescence was measured in similarly sized ROIs in neighboring areas devoid of cells. After sequential image acquisition (0.167-0.5 Hz) of cell fluorescence at 340/380 nm, the background was subtracted. […]

[4] = system: retinal ganglion cells; experiment: In vivo intraocular injection of GSK, NeuN+ RGC count; conditions: intraocular injection 100-300 nM, retinas after 48 hours
Protocol: In this experiment, GSK (100-300 nM) was injected intraocularly with a Hamilton syringe. Retinas were isolated after 48 hours, fixed and labeled with the RGC marker antibody NeuN. NeuN-immunopositive somata in the ganglion cell layer, shown in the panel on the right, were counted. The bar graph represents quantification of NeuN^+ cells in the indicated experimental groups.

[5] = system: retinal ganglion cells; experiment: TUNEL assay of apoptotic cell death in retinas; format: cell-based
Protocol: Terminal deoxynucleotidyl transferase-mediated dUTP-biotin nick end labeling (TUNEL) is a common method for detecting fragmentation that results from apoptotic signaling cascades. Retinas were embedded, cryosectioned, and processed for the TUNEL assay following the protocol by Gavrieli et al. (1992). After 30 min. rehydration in 70% ethanol, 2×5 min. rinses in PBS and 1% Triton-X in 1% citrate buffer (pH 7.3), the slides were subjected to a final rinse in PBS. Slides were then incubated for 30 min. in the reaction buffer (30 mM Trizma-HCl, 140 mM cacodylate, 1.0 mM CaCl2, 0.2% Triton X-100, pH 7.2). Positive controls were treated with DNAse I (Roche Diagnostics; Branford, Conn.; 10 U/ml) in the reaction buffer. Next, slides were treated for 1 hour with 0.03 units/μl terminal transferase and 4 μM biotin-16-dUTP (Roche Diagnostics). The reaction was terminated in 30 mM Na+ citrate, 300 mM NaCl and 0.2% Triton X-100 in PBS (5 min.) and rinsed in PBS (2×5 min), exposed to 1% bovine serum albumin in PBS for 20 min and rinsed. Apoptotic cells were visualized with a confocal microscope (Zeiss LSM510) and categorized by size. […] This was blocked by RuR and by the TRPV4 antagonist Compound 1.

[6] = biological target: T2, TRPV4 (Mus musculus, UniProt Q9EPK8); experiment: GSK-evoked [Ca++]i in retinal Müller glial cells; format: cell-based; design: endogenous in cells; host or cells: retinal Müller glial cells; conditions: retinal Müller glial cells; agonist alone
T2 sequence (Q9EPK8 whole entry): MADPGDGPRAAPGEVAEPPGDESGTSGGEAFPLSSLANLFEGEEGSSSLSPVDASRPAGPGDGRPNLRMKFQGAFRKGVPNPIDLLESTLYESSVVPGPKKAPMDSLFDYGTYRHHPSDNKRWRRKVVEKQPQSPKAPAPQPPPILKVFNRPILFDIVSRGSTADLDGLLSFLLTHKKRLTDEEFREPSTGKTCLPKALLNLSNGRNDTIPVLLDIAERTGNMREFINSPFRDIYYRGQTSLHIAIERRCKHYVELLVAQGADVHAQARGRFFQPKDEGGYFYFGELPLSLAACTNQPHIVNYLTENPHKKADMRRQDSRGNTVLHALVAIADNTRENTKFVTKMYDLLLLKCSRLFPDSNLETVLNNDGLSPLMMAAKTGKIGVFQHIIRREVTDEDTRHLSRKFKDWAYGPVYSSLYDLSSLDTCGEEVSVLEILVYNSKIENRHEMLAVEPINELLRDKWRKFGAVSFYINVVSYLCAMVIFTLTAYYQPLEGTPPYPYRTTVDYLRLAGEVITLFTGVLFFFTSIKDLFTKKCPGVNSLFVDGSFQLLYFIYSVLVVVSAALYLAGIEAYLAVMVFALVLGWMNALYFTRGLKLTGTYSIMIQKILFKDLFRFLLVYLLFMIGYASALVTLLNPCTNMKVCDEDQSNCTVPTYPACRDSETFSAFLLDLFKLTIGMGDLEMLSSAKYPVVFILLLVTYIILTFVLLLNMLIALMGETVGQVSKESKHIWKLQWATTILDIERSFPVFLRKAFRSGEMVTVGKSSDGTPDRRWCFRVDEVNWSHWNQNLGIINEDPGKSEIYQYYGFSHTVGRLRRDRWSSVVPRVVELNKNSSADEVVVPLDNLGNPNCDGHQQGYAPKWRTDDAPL

[7] = biological target: T2, TRPV4; experiment: AGB cation influx into retinal cells (anti-AGB antibody); format: cell-based; design: these two cell types express TRPV4 channels in the mouse retina; from tissue; host or cells: mouse retina (retinal ganglion cells and Müller glial cells); conditions: mouse retina; agonist alone
Protocol: FIG. 16 illustrates the effect of the TRPV4 agonist GSK on cation influx into mouse retinal cells of the mouse retina. The influx was determined using the anti-AGB antibody, as described by Marc R E (J Comp Neurol 407(1): 47-64, 1999). AGB is a membrane permeant cation that can flow through most known cation channels. Using an anti-AGB antibody, it can be determined where the cation flux occurs and, therefore, which cells are activated.

[8] = system: Müller cells; experiment: Arachidonic acid-induced [Ca2+]i in Müller cells; format: cell-based; conditions: 10 μM
Protocol: This response is blocked by Compound 1 (1 μM).

## CC(=O)OCOC(=O)CN(CC(=O)OCOC(C)=O)c1ccccc1OCCOc1ccccc1N(CC(=O)OCOC(C)=O)CC(=O)OCOC(C)=O [BAPTA-AM, reference compound]
[1]
  cell swelling (change in cell area): significantly reduced

## Cc1c(C(=O)Nc2cccc(C(=O)OC(C)C)c2)cc(-c2ccccc2)n1CCCN1CCOCC1.Cl [Compound 2-HCl, iso-propyl 3-(2-methyl-1-(3-morpholinopropyl)-5-phenyl-1H-pyrrole-3-carboxamido)benzoate hydrochloride]
[2]; after dosing
  time of maximal inhibition of IOP: 6 h

## CC(C)C[C@H](NC(=O)c1cc2ccccc2s1)C(=O)N1CCN(C(=O)[C@H](CO)NS(=O)(=O)c2ccc(Cl)cc2Cl)CC1 [GSK1016790A, reference compound]
[3]
  340/380 fluorescence ratio (intracellular calcium [Ca++]i): increased 340/380 fluorescence ratio
[4]
  number of retinal ganglion cells (NeuN+ somata): substantially reduces the number of retinal ganglion cells
[5]; 100 nM, agonist alone
  death of retinal ganglion cells (TUNEL staining): induced death of retinal ganglion cells
[6]
  intracellular calcium concentration [Ca++]i: evokes sustained increases
[7]
  number of AGB+ cells (cation influx): increased the number of AGB^+ retinal ganglion cells and Müller glial cells

## N.N.N.N.N.N.N.N.N.N.N.N.N.N.[Cl-].[Cl-].[Cl-].[Cl-].[Cl-].[Cl-].[O-2].[O-2].[Ru+3].[Ru+3].[Ru+4] [Ruthenium Red]
[5]; 190 mOsm saline, Compound 1 1 uM, RuR 10 μM
  apoptotic cell death induced by hypotonic swelling (TUNEL): block apoptotic cell death
[5]; GSK 100 nM, Compound 1 1 uM, RuR 10 μM
  apoptotic cell death induced by TRPV4 agonist GSK (TUNEL): block apoptotic cell death

## CCCCC/C=C\C/C=C\C/C=C\C/C=C\CCCC(=O)O [arachidonic acid, reference compound]
[8]
  [Ca2+]i response: increase in [Ca2+]i

## CC(C)(C)NC[C@H](O)COc1nsnc1N1CCOCC1 [timolol, reference compound]
[2]; positive control
  dose-response curve for inhibition of IOP relative to TRPV4 antagonists: left-shifted dose-response curve

— US20150133411A1, “COMPOUNDS WITH TRPV4 ACTIVITY, COMPOSITIONS AND ASSOCIATED METHODS THEREOF” (The University of Utah Research Foundation, priority 2012, published 2015)
